Data: patent US12358954B2, “Capsid-modified rAAV vector compositions and methods therefor” (priority 2012, dated 2025)
Entries after “also recorded” stand apart in the source; their conditions may differ.

What was measured:
[1] = tested on: primary human dendritic cells; test: FACS analyses of markers of maturation (CD83, CD86) of primary human dendritic cells; type: cell-based
Protocol: Cells, Antibodies and Chemicals. HeLa cells were obtained from the American Type Culture Collection (Rockville, Md., USA) and maintained as monolayer cultures in Iscove's-modified Dulbecco's medium (IMDM, Invitrogen, Inc., Carlsbad, Calif., USA) supplemented with 10% newborn calf serum (NCS) (Lonza, Inc., Basel, SWITZERLAND) and antibiotics. Leukapheresis-derived PBMCs were resuspended in serum-free AIM-V medium (Lonza, Inc.) and semi-adherent cell fractions were incubated in serum-free AIM-V medium supplemented with recombinant human IL-4 (500 U/mL) and GM-CSF (800 U/mL) (R&D Systems, MN, USA). Cells were treated with NF-κB modulators ([…]), and cytokines cocktail including 10 ng/mL TNF-α, 10 ng/mL IL-1, 10 ng/mL IL-6, […] (R&D Systems) for 20 hr. Cells were harvested, characterized to ensure they met the typical phenotype of mature DCs (CD83, RPE, murine IgG1, CD86, FITC, murine IgG1; Invitrogen, Inc.). All primary and secondary antibodies were purchased from Cell Signaling Technology, Inc. (Danvers, Mass., USA) or Santa Cruz Biotechnology, Inc (Santa Cruz, Calif., USA). NF-kB activators [Etoposide (VP16), Aphidicolin, Hydroxyurea (HU)] and NF-kB inhibitors [Bay11-7082 (Bay11), Pyrrolidine dithiocarbamate (PDTC)] were purchased from Sigma-Aldrich Co. (St. Louis, Mo., USA). These compounds were re-suspended in either DMSO (Sigma-Aldrich Co.) or in sterile, DNAase-, RNAase-free water (Invitrogen, Inc.) as per the manufacturer's instructions.

[2] = tested on: non-canonical NF-κB pathway (p100, p52); test: Western blot of NF-κB pathway components in HeLa cells; type: cell-based, human; settings: in the presence of VP16
From the text: Western Blot Analyses. Homogenized lysates of the cell pellets from ˜2×10^6 HeLa cells or DCs, mock or pre-treated with the optimal concentration of NF-κB activators or inhibitors were used for sample preparation. Whole cell proteins were isolated using the RIPA lysis buffer (Sigma-Aldrich Co.) and cytoplasmic and nuclear proteins were extracted using a commercial kit (NE-PER Extraction Reagent Kit, Pierce Biotech, Rockford, Ill., USA) as per the manufacturer's protocol in the presence of a protease inhibitor cocktail (Halt™ Protease Inhibitor Cocktail Kit, Pierce Biotech). The protein extracts were boiled for 5 min under reducing conditions [SDS-sample buffer containing 62.5 mM Tris-HCl (pH 6.8 at 25° C.), 2% wt./vol. SDS, 10% glycerol, 50 mM DTT, 0.01% wt./vol. bromo-phenol blue (Cell Signaling Technology, Inc.)] and stored at −86° C. until further analysis. Equal volumes of samples were run on 4-15% SDS-PAGE (Bio-Rad, Hercules, Calif., USA). […] The intensity of the protein bands was measured with Adobe Photoshop CS3 Software® and normalized to proteins levels from the housekeeping gene products used as loading controls.

[3] = tested on: primary human dendritic cells; test: AAV-EGFP transduction of primary human dendritic cells with NF-κB modulators (flow cytometry); type: cell-based
Protocol: (§1) Recombinant AAV Vector Transduction Assays in Vitro. Optimal concentration of NF-κB-modulating compounds was determined by a cell viability assay with tenfold-dilutions from the IC50 or were used as described previously (Wu and Miyamoto, 2008; Kumar et al., 2008). VP16 or Bay11 (10 or 5 μM, final concentration), and PDTC (50 or 25 μM final concentration) were used either alone or in activator/inhibitor combinations. For transduction experiments, approximately 1×10^5 HeLa cells were either pre-treated with these compounds 24 hrs prior to vector infection. Cells were transduced with 500 or 2,000 vector genomes (vgs) per cell of recombinant WT-AAV or TM-AAV vectors encoding the EGFP transgene as described previously (Markusic et al., 2010). After 7 days of culture, primary human dendritic cells were transduced with AAV vectors at 2000 vgs/cell and incubated for 48 hrs. Transgene expression was assessed as total area of green fluorescence (pixel^2) per visual field (mean±SD), or by flow cytometry. Analysis of variance (ANOVA) was used to compare between test results and the control and they were determined to be statistically significant.
Cells, Antibodies and Chemicals. […]

K562 cells = test: AAV6 transduction of K562 cells after enzyme / inhibitor treatment; type: cell-based, human
From the text: More recently, Denard et al. reported that galectin-3-binding protein in human sera agglutinates AAV6 vectors, which results in decreased transduction efficiency of these vectors. […] The identity of the putative receptor for AAV6 vectors in human CD34^+ cells remains elusive, and additional studies are warranted. […] The implication is that AAV6 uses a protein rather than a lipid on K562 cells for binding and entry into these cells. In addition, because AAV6 is known to have evolved from recombination between AAV1 and AAV2, and because AAV2 uses heparan sulfateproteoglycan (HSPG) as the primary cellular receptor, the level of HSPG expression on K562 cells surface was examined by FACS. […] The effect of inhibitors of O-linked and N-linked glycosylation was also evaluated on the transduction efficiency of AAV6 vectors in K562 cells.

HeLa cells [4] = test: AAV-EGFP transduction of HeLa cells in the presence of NF-κB modulators; type: cell-based, human; settings: HeLa, scAAV-EGFP
Protocol: as §1

HeLa cells [5] = test: scAAV2 transduction of HeLa cells with MG132 or Tyr23 (positive control); type: cell-based, human; settings: MG132 5 μM; Tyr23 200 μM
Protocol: (§2) AAV Vector Transduction Assays. Huh7 or HeLa cells were seeded in 96-well plates at a concentration of 5,000 cells per well in complete DMEM medium. AAV infections were performed in serum- and antibiotic-free DMEM medium. Hep293TT cells were seeded in 96-well plates at a concentration of 10,000 cells per well in complete RPMI medium. The infections were performed in serum- and antibiotic-free RPMI medium. The expression of EGFP was analyzed by direct fluorescence imaging 72 hrs' post-transduction.
Proteasome Inhibitors Increase the Transduction Efficiency of AAV3 Vectors. […] To evaluate whether MG132 can also improve AAV3 trafficking in target cells, Huh7, a well-established human hepatocellular carcinoma cell line (Nakabayashi et al., 1982), and Hep293TT, a recently established human hepatoblastoma cell line (Chen et al., 2009), were either mock-treated or treated with increasing concentrations of MG132. […] Transgene expression was determined by fluorescence microscopy 72 hrs post-transduction.
Previous studies have also shown that inhibition of EGFR-PTK signaling by Tyrphostin 23 (Tyr23), a specific inhibitor of EGFR-PTK (May et al., 1998), modulates the Ub/proteasome pathway, which in turn, facilitates intracellular trafficking and transgene expression mediated by AAV2 vectors (Zhong et al., 2007). […] Transgene expression was determined 72 hr post-transduction.

HeLa cells [6] = test: Recombinant AAV2 vector transduction assay in vitro (EGFP imaging); type: cell-based, human
Protocol: Recombinant AAV2 Vector Transduction Assays in Vitro. Approximately 1×10^5 HeLa cells were used for transductions with recombinant AAV2 vectors. The transduction efficiency was measured 48-hr post-transduction by EGFP imaging using fluorescence microscopy. Images from three to five visual fields were analyzed quantitatively by ImageJ analysis software (NIH, Bethesda, Md., USA). Transgene expression was assessed as total area of green fluorescence (pixel^2) per visual field (mean±SD). Analysis of variance (ANOVA) was used to compare between test results and the control and they were determined to be statistically significant.
The transduction efficiency of each of the tyrosine-mutant vectors was analyzed and compared with the WT scAAV2-EGFP vector in HeLa cells in vitro under identical conditions. […] Specifically, the transduction efficiency of Y444F, Y500F, Y730F vectors was ˜8- to 11-fold higher than the WT vector.
In a second study, HeLa cells, either mock-treated or treated with Tyr23, a specific inhibitor of EGFR-PTK, or MG132, a proteasome inhibitor, both known to increase the transduction efficiency of AAV vectors, were mock-infected or infected with the WT or Y730F scAAV2-EGFP vectors.

Hep293TT cells = test: AAV3 vector transduction assay in Hep293TT cells; type: cell-based, human
Protocol: as §2

T47D+hHGFR cells = test: AAV vector transduction of T47D+hHGFR cells; type: cell-based, human
From the text: (§3) Cell Lines and Cultures. Human cervical cancer (HeLa) and hepatocellular carcinoma (Huh7) cell lines were purchased from American Type Culture Collection (Manassas, Va., USA), and maintained in complete DMEM medium (Mediatech, Inc., Manassas, Va., USA) supplemented with 10% heat-inactivated fetal bovine serum (FBS, Sigma-Aldrich Co.), 1% penicillin and streptomycin (P/S, Lonza, Inc.). A newly established human hepatoblastoma (Hep293TT) cell line (Chen et al., 2009) was maintained in complete RPMI medium 1640 (Invitrogen, Inc.) supplemented with 15% heat-inactivated FBS (Sigma-Aldrich Co.), 1% penicillin and streptomycin (P/S, Lonza, Inc.). Cells were grown as adherent cultures in a humidified atmosphere at 37° C. in 5% CO2 and were sub-cultured after treatment with trypsin-versene mixture (Lonza, Inc.) for 2-5 min at room temperature, washed and re-suspended in complete medium. […]
(§4) Human HGFR is required for AAV3 infectivity. […] Equivalent numbers of T47D and T47D+hHGFR cells were transduced with various multiplicities-of-infection (MOI) of self-complementary (sc) AAV3-CBAp-EGFP vectors under identical conditions and transgene expression was determined 72 hr post-transduction.

T47D cells = test: AAV3 vector transduction of T47D cells; type: cell-based, human; settings: 1 μM, 2 hr; 10,000 vg/cell
From the text: as §3, §4

HGFR kinase = target: T1, HGFR kinase (Homo sapiens, UniProt P08581); test: Western blot of HGFR phosphorylation and downstream signaling; type: cell-based; settings: T47D+hHGFR cells
T1 construct: expressed in transfected cells; host or cells: T47D human breast cancer cells stably transfected with a hHGFR expression plasmid (T47D+hHGFR); parental T47D as control
Protocol: Cells were harvested and disrupted in a radio-immunoprecipitation assay (RIPA) lysis buffer (50 mM Tris-HCl, pH 8.0, 150 mM NaCl, 0.1% SDS, 1% NP-40, 0.25% sodium deoxycholate and 1 mM EDTA with protease inhibitor cocktail, 1 mM NaF and 1 mM Na3VO4). Total protein concentration was measured using a Bradford reagent (Bio-Rad) and equal amounts (50 μg) of whole cell lysates were resolved by SDS-PAGE. After electrophoresis, samples were electro-transferred to a nitrocellulose membrane (Bio-Rad), probed with relevant primary antibodies at 4° C. overnight, incubated with horseradish peroxidase-conjugated secondary antibodies (Jackson ImmunoResearch, West Grove, Pa., USA), and detected with an enhanced chemi-luminescence substrate (Amersham). […]
To examine whether inhibition of the HGFR kinase led to alterations in the phosphorylation status of specific cellular proteins involved in the downstream signaling pathway total and phosphorylation levels of the HGFR protein in both T47D and T47D+hHGFR lysates were determined following a 2-hr drug-incubation period. Activation of signaling pathways downstream from HGFR kinase, ERK1/2 and Akt, were analyzed using phosphorylation-specific antibodies.

[7] = Mature DCs + AAV + Cytokines + modulator

T1 sequence (P08581 25-1390): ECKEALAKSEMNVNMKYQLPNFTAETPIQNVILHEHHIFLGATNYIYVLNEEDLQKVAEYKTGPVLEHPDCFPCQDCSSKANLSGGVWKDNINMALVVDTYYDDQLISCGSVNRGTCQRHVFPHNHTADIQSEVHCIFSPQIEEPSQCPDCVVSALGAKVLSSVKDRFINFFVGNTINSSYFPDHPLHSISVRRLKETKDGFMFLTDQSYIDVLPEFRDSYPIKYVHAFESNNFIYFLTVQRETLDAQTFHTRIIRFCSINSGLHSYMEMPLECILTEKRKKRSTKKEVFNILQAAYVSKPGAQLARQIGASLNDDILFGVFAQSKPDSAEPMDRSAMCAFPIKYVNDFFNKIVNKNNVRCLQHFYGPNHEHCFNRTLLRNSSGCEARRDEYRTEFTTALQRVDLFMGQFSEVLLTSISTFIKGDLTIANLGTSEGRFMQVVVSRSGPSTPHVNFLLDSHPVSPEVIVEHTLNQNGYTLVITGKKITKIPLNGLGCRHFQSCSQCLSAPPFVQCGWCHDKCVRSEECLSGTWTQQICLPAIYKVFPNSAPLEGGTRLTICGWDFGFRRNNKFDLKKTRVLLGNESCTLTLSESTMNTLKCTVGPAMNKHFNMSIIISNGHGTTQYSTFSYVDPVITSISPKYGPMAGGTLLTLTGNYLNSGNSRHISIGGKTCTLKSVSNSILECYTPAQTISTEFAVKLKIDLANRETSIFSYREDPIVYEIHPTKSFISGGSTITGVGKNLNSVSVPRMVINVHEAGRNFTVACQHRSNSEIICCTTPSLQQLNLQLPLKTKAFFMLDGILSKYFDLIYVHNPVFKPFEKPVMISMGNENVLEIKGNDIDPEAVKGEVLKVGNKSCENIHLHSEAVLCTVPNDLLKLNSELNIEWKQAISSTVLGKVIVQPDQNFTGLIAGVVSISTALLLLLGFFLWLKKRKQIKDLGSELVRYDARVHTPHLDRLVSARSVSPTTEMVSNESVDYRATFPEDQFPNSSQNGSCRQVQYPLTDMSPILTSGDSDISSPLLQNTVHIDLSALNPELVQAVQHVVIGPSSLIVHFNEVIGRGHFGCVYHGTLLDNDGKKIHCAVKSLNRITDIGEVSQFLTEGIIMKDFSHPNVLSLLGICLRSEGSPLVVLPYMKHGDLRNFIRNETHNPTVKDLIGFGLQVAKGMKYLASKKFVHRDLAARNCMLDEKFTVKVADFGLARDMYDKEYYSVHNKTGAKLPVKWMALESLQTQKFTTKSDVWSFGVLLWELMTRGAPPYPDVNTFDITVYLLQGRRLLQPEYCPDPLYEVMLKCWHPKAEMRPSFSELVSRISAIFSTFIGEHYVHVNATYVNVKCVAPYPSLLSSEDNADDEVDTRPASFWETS

COc1cc([C@@H]2c3cc4c(cc3[C@@H](O[C@@H]3O[C@@H]5CO[C@@H](C)O[C@H]5[C@H](O)[C@H]3O)[C@H]3COC(=O)[C@H]23)OCO4)cc(OC)c1O [VP16, Etoposide]
maturation of DCs (CD83, CD86) [1]: not able to induce maturation
Geometric means of levels of expression in cells expressing CD83 ([1]; DCs without cytokines): 16.48
Geometric means of levels of expression in cells expressing CD86 ([1]; DCs without cytokines): 13.70
Geometric means of levels of expression in cells expressing CD83 [1, 7]: 19.92
Geometric means of levels of expression in cells expressing CD86 [1, 7]: 21.92
increase in cytosolic p100 and nuclear p52 [2]: 3- to 6 fold
EGFP expression increase compared with scAAV vector-transduced DCs [3]: ~20 fold

heparin
effect on AAV6 vector-mediated transduction of K562 cells (K562 cells): could not be inhibited

S=C(S)N1CCCC1 [PDTC, Pyrrolidine dithiocarbamate]
AAV vector-mediated EGFP expression, fold augmentation (HeLa cells [4]): had no effect; also recorded: no noticeable effect

N#CC(C#N)=Cc1ccc(O)c(O)c1 [Tyr23, Tyrphostin 23]
transduction efficiency of scAAV2 vectors after pretreatment (HeLa cells [5]): significant increase
increase in transduction efficiency of WT scAAV2-EGFP by pretreatment (HeLa cells [6]): ~9 fold
amounts of internalized viral DNA in presence or absence of inhibitor (Hep293TT cells): no significant difference
transduction efficiency of scAAV3 vectors after treatment (Hep293TT cells; 2 hr treatment): significant increase

phospholipase A2
effect on AAV6 vector-mediated transduction of K562 cells (K562 cells): no significant change

CCOc1ccn(-c2ccc(F)cc2)c(=O)c1C(=O)Nc1ccc(Oc2ccnc(N)c2Cl)c(F)c1 [BMS-777607, N-(4-(2-amino-3-chloropyridin-4-yloxy)-3-fluorophenyl)-4-ethoxy-1-(4-fluorophenyl)-2-oxo-1,2-dihydropyridine-3-carboxamide]
AAV3 infectivity (T47D+hHGFR cells; 1 μM, 2 hr, 10,000 vg/cell): significantly enhanced
AAV3 infectivity (T47D cells): no effect
expression of phosphorylated AKT and ERK1/2 (HGFR kinase): no effect
phosphorylation of HGFR (HGFR kinase; 2-hr incubation): completely blocked

tunicamycin
effect on AAV6 vector-mediated transduction of K562 cells (K562 cells): markedly reduced

hHGF: human hepatocyte growth factor
AAV3 vector-mediated transduction in the presence of hHGF (T47D+hHGFR cells; 5 μg/mL hHGF, 2,000 vgs/cell): completely blocked
